Key:
JAK3 = JAK3 (Homo sapiens (Human), UniProt P52333); assay: Biochemical JAK kinase assay (LanthaScreen), JAK3
Protocol: (§1) Recombinant GST-tagged JAK enzymes and a GFP-tagged STAT1 peptide substrate were obtained from Life Technologies. Serially diluted compounds were pre-incubated with each of the four JAK enzymes and the substrate in white 384-well microplates (Corning) at ambient temperature for 1 h. ATP was subsequently added to initiate the kinase reactions in 10 μL total volume, with 1% DMSO. […] Kinase reactions were allowed to proceed for 1 hour at ambient temperature before a 10 μL preparation of EDTA (10 mM final concentration) and Tb-anti-pSTAT1 ([…]) antibody (Life Technologies, 2 nM final concentration) in TR-FRET dilution buffer (Life Technologies) was added. The plates were allowed to incubate at ambient temperature for 1 h before being read on the EnVision reader (Perkin Elmer). Emission ratio signals (520 nm/495 nm) were recorded and utilized to calculate the percent inhibition values based on DMSO and background controls. For dose-response analysis, percent inhibition data were plotted vs. compound concentrations, and IC50 values were determined from a 4-parameter robust fit model with the Prism software (GraphPad Software). Results were expressed as pIC50 (negative logarithm of IC50) and subsequently converted to pKi (negative logarithm of dissociation constant, Ki) using the Cheng-Prusoff equation.

Lung S9 metabolism = format: in vitro ADME, human; details: for Compound Remaining at 60 min (%) / microsomal CLint at 1 µM: human lung S9, 1 μM compound, 1 mg/mL S9 protein; for Sulfate Appearance: human lung S9, qualitative O-sulfate metabolite peak; for microsomal CLint at 1 µM: human lung S9 fraction, pH 7.4, NADPH and PAPS, read-out: Clearance
Protocol: The time 0, 15, 30, and 60 minute samples were analyzed for parent compound by high resolution LC-MS/MS. Lung S9 fractions from human (lot 1410245) were purchased from XenoTech LLC (Lenexa, Kans.). NADPH (Sigma Aldrich, N1630) and 3-phosphoadenosine 5-phosphosulfate (PAPS) (Sigma Aldrich, A1651) were purchased from Sigma Aldrich (St. Louis, Mo.). Acetonitrile and water were obtained from VWR (Radnor, Pa.) and were of HPLC grade or better. Raloxifene and formic acid was purchased from Sigma Aldrich (St. Louis, Mo.). Lung S9 incubations were performed in a water bath at 37° C. in a 96-well polypropylene plate. […] Louis, Mo.), 3 mM magnesium chloride (Sigma Aldrich, M1028) and in the presence of 100 μM PAPS (Sigma-Aldrich, St. […] Incubation volumes consisted of 400 μL and time points were taken at 0, 15, 30, and 60 minutes by the removal of a 70 μL aliquot and dilution into 140 μL acetonitrile (0% formic acid). All samples were centrifuged at 2250 g for 10 minutes at 5° C. Supernatant […] was taken from the centrifuged samples and diluted into 100 μL HPLC water containing internal standard. The samples were run on a Dionex Ultimate 3000 Auto sampler and analyzed using a Thermo Q-Exactive High Resolution Mass Spectrometer (Thermo, Waltham, Mass.) in Full Scan mode in conjunction with an Atlantis T3 column 3 μM-2.1×50 mm (Waters Inc., 186003717). Mobile Phase A consisted of Water+0.2% formic acid and Mobile Phase B consisted of acetonitrile +0.2% formic acid. Peak integration was accomplished using Gubbs GMSU software (Gubbs Inc., Alpharetta, Ga.). For each sample, peak area ratios were calculated by dividing the analyte peak area by the internal standard peak area. For each incubation, the peak area ratios of the analytes in each t0 was set to 100%, and the peak areas ratios from the 60 minute samples were converted to percentages remaining relative to the corresponding t0. Determination of sulfate metabolite formation was made qualitatively by observation of early-eluting peak in the parent ion channel which, based on historical internal data, corresponded to the O-sulfate metabolite of each parent compound.

JAK2 = JAK2 (Homo sapiens (Human), UniProt O60674); assay: Biochemical JAK kinase assay (LanthaScreen), JAK2
JAK2, sequence (O60674 whole entry): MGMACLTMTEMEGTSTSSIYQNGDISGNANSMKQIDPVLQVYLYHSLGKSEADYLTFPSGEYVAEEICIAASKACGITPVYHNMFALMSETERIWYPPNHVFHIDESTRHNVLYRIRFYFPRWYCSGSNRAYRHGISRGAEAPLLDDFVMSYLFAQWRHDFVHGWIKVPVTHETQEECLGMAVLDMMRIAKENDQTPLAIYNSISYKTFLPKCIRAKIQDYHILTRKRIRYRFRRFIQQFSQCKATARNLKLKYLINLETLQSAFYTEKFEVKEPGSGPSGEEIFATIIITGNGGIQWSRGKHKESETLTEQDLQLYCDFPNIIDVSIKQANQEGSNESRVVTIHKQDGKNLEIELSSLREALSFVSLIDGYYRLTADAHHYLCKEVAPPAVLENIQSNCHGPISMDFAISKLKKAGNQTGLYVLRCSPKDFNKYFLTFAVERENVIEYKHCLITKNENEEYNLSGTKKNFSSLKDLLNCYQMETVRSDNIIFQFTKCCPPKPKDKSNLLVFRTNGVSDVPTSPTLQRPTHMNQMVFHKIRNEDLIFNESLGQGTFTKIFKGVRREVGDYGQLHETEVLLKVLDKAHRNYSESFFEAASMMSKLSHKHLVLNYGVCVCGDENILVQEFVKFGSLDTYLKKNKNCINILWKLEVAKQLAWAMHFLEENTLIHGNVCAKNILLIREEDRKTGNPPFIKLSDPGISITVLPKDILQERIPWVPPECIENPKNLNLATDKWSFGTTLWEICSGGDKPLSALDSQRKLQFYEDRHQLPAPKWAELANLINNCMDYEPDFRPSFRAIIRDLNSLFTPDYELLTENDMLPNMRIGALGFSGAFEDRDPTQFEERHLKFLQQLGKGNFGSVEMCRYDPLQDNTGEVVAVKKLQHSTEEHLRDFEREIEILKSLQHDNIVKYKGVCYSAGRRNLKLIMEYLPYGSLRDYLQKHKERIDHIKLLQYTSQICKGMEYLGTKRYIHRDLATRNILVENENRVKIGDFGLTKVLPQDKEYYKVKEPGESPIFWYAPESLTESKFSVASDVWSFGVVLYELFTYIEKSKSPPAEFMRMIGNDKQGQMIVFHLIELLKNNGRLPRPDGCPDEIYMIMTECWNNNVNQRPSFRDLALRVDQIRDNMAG
Protocol: as §1, with “equation. Test compounds having a lower Ki value or higher pKi value in the four JAK assays show greater inhibition of JAK activity.” for “equation.”

Tyk2 = Tyk2 (Homo sapiens (Human), UniProt P29597); assay: Biochemical JAK kinase assay (LanthaScreen), Tyk2
Tyk2, sequence (P29597 whole entry): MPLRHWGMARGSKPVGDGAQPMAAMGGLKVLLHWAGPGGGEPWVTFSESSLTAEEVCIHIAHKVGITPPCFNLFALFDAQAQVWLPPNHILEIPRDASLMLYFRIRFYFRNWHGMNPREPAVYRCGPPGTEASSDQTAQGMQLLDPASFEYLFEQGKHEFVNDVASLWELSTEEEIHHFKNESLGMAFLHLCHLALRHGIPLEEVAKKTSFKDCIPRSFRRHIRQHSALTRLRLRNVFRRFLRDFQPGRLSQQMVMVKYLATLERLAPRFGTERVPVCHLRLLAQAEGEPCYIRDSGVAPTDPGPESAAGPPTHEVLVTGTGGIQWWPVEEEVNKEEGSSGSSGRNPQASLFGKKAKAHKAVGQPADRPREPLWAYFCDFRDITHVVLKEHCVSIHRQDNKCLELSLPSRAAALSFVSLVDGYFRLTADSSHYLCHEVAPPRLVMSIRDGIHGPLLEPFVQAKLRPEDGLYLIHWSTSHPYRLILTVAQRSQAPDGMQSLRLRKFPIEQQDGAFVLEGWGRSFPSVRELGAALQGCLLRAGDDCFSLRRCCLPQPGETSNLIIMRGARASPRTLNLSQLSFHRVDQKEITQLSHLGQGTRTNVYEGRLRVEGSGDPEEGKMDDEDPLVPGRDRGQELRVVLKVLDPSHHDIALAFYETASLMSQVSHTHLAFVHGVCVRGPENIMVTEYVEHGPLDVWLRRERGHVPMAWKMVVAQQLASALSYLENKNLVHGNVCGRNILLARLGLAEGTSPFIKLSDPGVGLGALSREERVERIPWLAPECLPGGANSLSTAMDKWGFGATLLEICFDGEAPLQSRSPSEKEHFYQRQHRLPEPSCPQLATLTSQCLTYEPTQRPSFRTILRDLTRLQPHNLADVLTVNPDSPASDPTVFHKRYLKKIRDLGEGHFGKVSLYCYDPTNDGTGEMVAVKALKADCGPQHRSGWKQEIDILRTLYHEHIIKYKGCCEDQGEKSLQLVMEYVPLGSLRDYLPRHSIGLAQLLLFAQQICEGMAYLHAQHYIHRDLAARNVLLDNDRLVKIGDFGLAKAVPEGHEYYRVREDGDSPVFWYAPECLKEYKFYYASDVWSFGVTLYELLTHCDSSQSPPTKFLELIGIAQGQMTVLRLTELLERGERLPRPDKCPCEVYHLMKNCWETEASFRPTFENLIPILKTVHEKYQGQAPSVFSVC
Protocol: as §1

[1] = system: IL-2 stimulated pSTAT5 in Tall-1 T cells; assay: Inhibition of IL-2 stimulated pSTAT5 in Tall-1 T cells; format: cell-based; details: IL-2 stimulated pSTAT5, Tall-1 human T cell line; read-out: Tall-1 pIC50 (converted)
Protocol: The potency of test compounds for inhibition of interleukin-2 (IL-2) stimulated STAT5 phosphorylation was measured in the Tall-1 human T cell line (DSMZ) using AlphaLisa. Because IL-2 signals through JAK1/3, this assay provides a measure of JAK1/3 cellular potency.
Phosphorylated STAT5 was measured via the AlphaLISA SureFire Ultra pSTAT5 (Tyr694/699) kit (PerkinElmer).
Human T cells from the Tall-1 cell line were cultured in a 37° C., 5% CO2 humidified incubator in RPMI (Life Technologies) supplemented with 15% Heat Inactivated Fetal Bovine Serum (FBS, Life Technologies), 2 mM Glutamax (Life Technologies), 25 mM HEPES (Life Technologies) and 1× Pen/Strep (Life Technologies). Compounds were serially diluted in DMSO and dispensed acoustically to empty wells. Assay media (phenol red-free DMEM (Life Technologies) supplemented with 10% FBS (ATCC)) was dispensed (4 μL/well) and plates shaken at 900 rpm for 10 mins. Cells were seeded at 45,000 cells/well in assay media (4 μL/well), and incubated at 37° C., 5% CO2 for 1 hour, followed by the addition of IL-2 (R&D Systems; final concentration 300 ng/mL) in pre-warmed assay media (4 μL) for 30 minutes. After cytokine stimulation, cells were lysed with 6 ul of 3× AlphaLisa Lysis Buffer (PerkinElmer) containing 1× PhosStop and Complete tablets (Roche). The lysate was shaken at 900 rpm for 10 minutes at room temperature (RT). Phosphorylated STAT5 was measured via the pSTAT5 AlphaLisa kit (PerkinElmer). Freshly prepared acceptor bead mixture was dispensed onto lysate (5 μL) under green filtered <100 lux light. Plates were shaken at 900 rpm for 2 mins, briefly spun down, and incubated for 2 hrs at RT in the dark. Donor beads were dispensed (5 μL) under green filtered <100 lux light. Plates were shaken at 900 rpm for 2 minutes, briefly spun down, and incubated overnight at RT in the dark. Luminescence was measured with excitation at 689 nm and emission at 570 nm using an EnVision plate reader (PerkinElmer) under green filtered <100 lux light.
To determine the inhibitory potency of test compounds in response to IL-2, the average emission intensity of beads bound to pSTAT5 was measured in a human T cell line. IC50 values were determined from analysis of the inhibition curves of signal intensity versus compound concentration. Data are expressed as pIC50 (negative decadic logarithm IC50) values (mean±standard deviation).

JAK1 = JAK1 (Homo sapiens (Human), UniProt P23458); assay: Biochemical JAK kinase assay (LanthaScreen), JAK1
JAK1, sequence (P23458 whole entry): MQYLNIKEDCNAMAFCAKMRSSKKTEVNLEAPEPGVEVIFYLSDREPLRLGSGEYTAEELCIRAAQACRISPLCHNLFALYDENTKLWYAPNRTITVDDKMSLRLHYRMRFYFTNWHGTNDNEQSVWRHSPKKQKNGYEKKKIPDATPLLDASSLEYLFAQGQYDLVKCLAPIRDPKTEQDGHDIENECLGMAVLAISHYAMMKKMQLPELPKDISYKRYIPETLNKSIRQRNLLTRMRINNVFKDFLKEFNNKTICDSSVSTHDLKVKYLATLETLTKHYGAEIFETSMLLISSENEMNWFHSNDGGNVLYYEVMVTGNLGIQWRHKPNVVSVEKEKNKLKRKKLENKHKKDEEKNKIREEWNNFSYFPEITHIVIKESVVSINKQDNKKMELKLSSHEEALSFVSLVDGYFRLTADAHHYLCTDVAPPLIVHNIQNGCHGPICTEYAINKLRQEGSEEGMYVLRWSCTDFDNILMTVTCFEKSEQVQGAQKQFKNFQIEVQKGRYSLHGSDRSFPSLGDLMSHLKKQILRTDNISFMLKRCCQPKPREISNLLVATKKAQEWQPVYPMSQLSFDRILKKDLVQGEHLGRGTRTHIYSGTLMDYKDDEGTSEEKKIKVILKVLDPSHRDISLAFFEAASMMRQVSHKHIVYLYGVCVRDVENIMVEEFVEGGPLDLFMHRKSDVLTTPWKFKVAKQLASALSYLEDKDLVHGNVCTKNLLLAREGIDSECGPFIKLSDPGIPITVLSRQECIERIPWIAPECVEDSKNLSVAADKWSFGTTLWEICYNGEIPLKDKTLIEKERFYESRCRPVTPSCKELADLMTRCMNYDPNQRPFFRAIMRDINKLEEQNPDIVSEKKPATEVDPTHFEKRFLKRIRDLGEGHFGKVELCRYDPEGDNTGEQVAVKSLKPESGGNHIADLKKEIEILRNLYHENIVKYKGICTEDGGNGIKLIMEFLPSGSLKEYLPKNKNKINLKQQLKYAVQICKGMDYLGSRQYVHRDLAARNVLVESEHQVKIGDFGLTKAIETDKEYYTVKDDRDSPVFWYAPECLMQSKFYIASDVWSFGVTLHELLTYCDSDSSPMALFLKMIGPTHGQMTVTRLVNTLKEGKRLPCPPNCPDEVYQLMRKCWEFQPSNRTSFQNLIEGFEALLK
Protocol: as §1

JAK3, sequence (P52333 whole entry): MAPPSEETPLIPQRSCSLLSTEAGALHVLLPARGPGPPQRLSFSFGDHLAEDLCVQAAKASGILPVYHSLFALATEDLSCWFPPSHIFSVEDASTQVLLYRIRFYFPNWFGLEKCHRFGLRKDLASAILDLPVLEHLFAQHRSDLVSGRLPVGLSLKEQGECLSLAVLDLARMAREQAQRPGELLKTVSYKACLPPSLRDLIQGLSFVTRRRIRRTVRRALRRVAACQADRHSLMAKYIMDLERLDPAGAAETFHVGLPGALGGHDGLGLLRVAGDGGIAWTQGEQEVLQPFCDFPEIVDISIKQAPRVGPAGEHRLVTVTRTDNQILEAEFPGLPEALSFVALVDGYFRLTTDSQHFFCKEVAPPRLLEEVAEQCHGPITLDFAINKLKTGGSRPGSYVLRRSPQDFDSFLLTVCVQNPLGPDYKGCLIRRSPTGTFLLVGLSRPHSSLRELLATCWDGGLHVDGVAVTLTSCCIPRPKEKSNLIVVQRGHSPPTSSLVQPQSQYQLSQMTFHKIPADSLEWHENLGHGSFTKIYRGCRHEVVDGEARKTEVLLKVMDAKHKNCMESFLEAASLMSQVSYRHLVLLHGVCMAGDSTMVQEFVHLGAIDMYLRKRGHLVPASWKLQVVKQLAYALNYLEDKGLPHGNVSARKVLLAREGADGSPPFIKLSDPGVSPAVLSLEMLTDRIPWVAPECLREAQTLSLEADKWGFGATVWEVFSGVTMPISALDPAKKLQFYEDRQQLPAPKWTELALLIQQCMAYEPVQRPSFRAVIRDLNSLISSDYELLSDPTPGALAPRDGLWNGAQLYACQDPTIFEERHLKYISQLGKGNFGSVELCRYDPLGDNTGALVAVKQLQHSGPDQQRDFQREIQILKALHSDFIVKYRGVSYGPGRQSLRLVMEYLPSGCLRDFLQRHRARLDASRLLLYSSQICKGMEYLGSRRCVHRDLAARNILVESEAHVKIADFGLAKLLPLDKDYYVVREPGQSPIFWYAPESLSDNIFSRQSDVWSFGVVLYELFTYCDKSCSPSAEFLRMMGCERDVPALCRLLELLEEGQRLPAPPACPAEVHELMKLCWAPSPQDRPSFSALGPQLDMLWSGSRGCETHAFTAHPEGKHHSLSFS

| SMILES | JAK3 pKi (JAK3) | Compound Remaining at 60 min (%) (Lung S9 metabolism) | Sulfate Appearance (Lung S9 metabolism) | microsomal CLint at 1 µM (Lung S9 metabolism) | JAK2 pKi (JAK2) | Tyk2 pKi (Tyk2) | IC50 [1] | JAK1 pKi (JAK1) |
| --- | --- | --- | --- | --- | --- | --- | --- | --- |
| CCc1cc(O)c(F)cc1-c1ccc2c(-c3nc4c([nH]3)CN(CC)[C@H](C(=O)N3CC(N(C)C)C3)C4)n[nH]c2c1 [Compound C-2, (S)-(3-(dimethylamino)azetidin-1-yl)(5-ethyl-2-(6-(2-ethyl-5-fluoro-4-hydroxyphenyl)-1H-indazol-3-yl)-4,5,6,7-tetrahydro-3H-imidazo[4,5-c]pyridin-6-yl)methanone] | 9.5 | 6% | Yes | 46.7 µL/min/mg | 10.9 | 9.4 | 2 nM |  |
| CCCN1Cc2[nH]c(-c3n[nH]c4cc(-c5cc(F)c(O)cc5CC)ccc34)nc2C[C@H]1C(=O)N1CC(N(C)C)C1 [Compound C-5, (S)-(3-(dimethylamino)azetidin-1-yl)(2-(6-(2-ethyl-5-fluoro-4-hydroxyphenyl)-1H-indazol-3-yl)-5-propyl-4,5,6,7-tetrahydro-3H-imidazo[4,5-c]pyridin-6-yl)methanone] | 10.0 | 5% | Yes | 50.5 µL/min/mg | 10.8 | 9.4 | 2 nM | 10.1 |
